In PubChem BioAssay AID504681 (National Center for Advancing Translational Sciences (NCATS), 2011):

Test system: PBS pH 7.4 stability, LC-MS/MS, 48 h
Test: Inhibitors of Human alpha-Glucosidase: PBS Stability Profiling
Conditions: at 20 µM; stronger effect = higher value
Description: Alpha-glucosidase is responsible for the hydrolysis of terminal, non-reducing 1,4-linked alpha-D-glucose residues, which releases alpha-D-glucose. It is a lysosomal hydrolase that is required for the degradation of a small percentage (1-3%) of cellular glycogen in humans. Deficiency of this enzyme results in glycogen-storage disease type II (GSDII), also referred to as Pompe disease, an autosomal recessive disorder. Structurally normal glycogen is accumulated in the lysosomes and cytoplasm in affected patients, primarily in muscle tissues. Excessive glycogen storage within lysosomes may interrupt normal functioning of other organelles and leads to cellular injury. In turn, this leads to enlargement and dysfunction of the entire organ involved (eg: cardiomyopathy and muscle weakness). The stability of the lead compound in PBS buffer is tested because this parameter has a significant impact on many ADME-concerned properties of drugs, such as uptake, distribution, transport, and eventually bioavailability. NIH Chemical Genomics Center [NCGC] NIH Molecular Libraries Probe Production Centers Network [MLPCN] […]
20uM of compound is incubated in PBS buffer at pH 7.4 at […]; the reference compound is procaine. Compounds are incubated at 37 deg C for the pre-determined time periods and the when aliquots are removed. Samples are analyzed with LC-MS/MS.

percent remaining: 100%
SMILES: CC(=O)c1ccc(N2CCN(S(=O)(=O)c3ccc4c(c3)CC(=O)N4)CC2)cc1
